# According to US9066971B2 (priority 2010, dated 2015):
# Tested on: mouse colon 26 cell line
# Type: in vivo
# Conditions: 18 mg/kg aspirin alone, tail vein, twice a week; day 23; compared to PBS alone
# Method: The shedding microvesicles derived from E. coli, P. aeruginosa, and S. enteritidis were assayed for anticancer activity. A mouse colon 26 cell line was subcutaneously injected at a dose of 1×10^6 cells into mice, and cultured. After one week, a PBS solution containing 1 μg, or 5 μg of each of the Gram-negative bacterial cell-derived microvesicles was injected at a dose of 100 μl twice a week via the tail vein into the mice which were divided into groups, each consisting of three. On day 23 after the transplantation of cancer cells, the sizes of colon cancer tissue were monitored. The volume of cancer tissue was calculated by the equation V=l×s^2/2, wherein 1 is a length of the longest axis of a tumor and s is a length of the axis perpendicular to the longest axis.
# The shedding microvesicles derived from S. aureus and Lactobacillus acidophilus were assayed for anticancer activity. […] On day 23 after the transplantation of cancer cells, the sizes of colon cancer tissue were monitored. The volume of cancer tissue was calculated by the equation V=l×s^2/2, wherein 1 is a length of the longest axis of a tumor and s is a length of the axis perpendicular to the longest axis.
# A mouse colon 26 cell line was subcutaneously injected at a dose of 1×10^6 cells into mice, and cultured. […] On day 23 after the transplantation of cancer cells, the sizes of colon cancer tissue were monitored. […]
compound,measurement,value
CC(=O)Oc1ccccc1C(=O)O [aspirin],size of colon tumors,no differences in the size of colon tumors
